In assay [1] the test system is Macacine alphaherpesvirus 1. Description: Ratio of acyclovir EC50 to compound EC50 for Macacine herpesvirus 1 isolate MR5 infected in african green monkey Vero cells. Type of assay: functional.
Assay [2] has as its system Macacine alphaherpesvirus 1. Description: Ratio of acyclovir EC50 to compound EC50 for Macacine herpesvirus 1 isolate MR10 infected in african green monkey Vero cells. Format: functional.
For assay [3], the system named is Macacine alphaherpesvirus 1. Briefly: Ratio of acyclovir EC50 to compound EC50 for Macacine herpesvirus 1 isolate A1 infected in african green monkey Vero cells. Type of assay: functional.
Assay [4] concerns Macacine alphaherpesvirus 1. Briefly: Ratio of acyclovir EC50 to compound EC50 for Macacine herpesvirus 1 isolate MP1 infected in african green monkey Vero cells. Type of assay: functional.
The subject of assay [5] is Macacine alphaherpesvirus 1. Briefly: Ratio of acyclovir EC50 to compound EC50 for Macacine herpesvirus 1 isolate MR4 infected in african green monkey Vero cells. Type of assay: functional.
Assay [6] deals with Macacine alphaherpesvirus 1. Briefly: Ratio of acyclovir EC50 to compound EC50 for Macacine herpesvirus 1 isolate MR1 infected in african green monkey Vero cells. Type of assay: functional.
The subject of assay [7] is Macacine alphaherpesvirus 1. Description: Ratio of acyclovir EC50 to compound EC50 for Macacine herpesvirus 1 isolate A3 infected in african green monkey Vero cells. Format: functional.
The subject of assay [8] is Macacine alphaherpesvirus 1. Briefly: Ratio of acyclovir EC50 to compound EC50 for Macacine herpesvirus 1 isolate MR3 infected in african green monkey Vero cells. Type of assay: functional.
The test system of assay [9] is Macacine alphaherpesvirus 1. Briefly: Ratio of acyclovir EC50 to compound EC50 for Macacine herpesvirus 1 isolate MR6 infected in african green monkey Vero cells. Format: functional.
For assay [10], the system named is Macacine alphaherpesvirus 1. Briefly: Ratio of acyclovir EC50 to compound EC50 for Macacine herpesvirus 1 isolate MR8 infected in african green monkey Vero cells. Format: functional.
In assay [11] the test system is Human alphaherpesvirus 2. Briefly: Ratio of acyclovir EC50 to compound EC50 for HSV 2 infected in african green monkey Vero cells. Type of assay: functional.
Assay [12] relates to Macacine alphaherpesvirus 1. Description: Ratio of acyclovir EC50 to compound EC50 for Macacine herpesvirus 1 isolate A6 infected in african green monkey Vero cells. Format: functional.
Assay [13] has as its system Human alphaherpesvirus 1. Description: Ratio of acyclovir EC50 to compound EC50 for HSV1 infected in african green monkey Vero cells. Type of assay: functional.
Assay [14] has as its system Macacine alphaherpesvirus 1. Description: Ratio of acyclovir EC50 to compound EC50 for Macacine herpesvirus 1 isolate MC1 infected in african green monkey Vero cells. Type of assay: functional.
Assay [15] concerns Macacine alphaherpesvirus 1. Description: Ratio of acyclovir EC50 to compound EC50 for Macacine herpesvirus 1 isolate E2490 infected in african green monkey Vero cells. Type of assay: functional.
For assay [16], the system named is Macacine alphaherpesvirus 1. Description: Ratio of acyclovir EC50 to compound EC50 for Macacine herpesvirus 1 isolate A5 infected in african green monkey Vero cells. Format: functional.
In assay [17] the test system is Macacine alphaherpesvirus 1. Description: Ratio of acyclovir EC50 to compound EC50 for Macacine herpesvirus 1 isolate MJ1 infected in african green monkey Vero cells. Format: functional.
Assay [18] has as its system Macacine alphaherpesvirus 1. Briefly: Ratio of acyclovir EC50 to compound EC50 for Macacine herpesvirus 1 isolate MR7 infected in african green monkey Vero cells. Type of assay: functional.
The test system of assay [19] is Macacine alphaherpesvirus 1. Briefly: Ratio of acyclovir EC50 to compound EC50 for Macacine herpesvirus 1 isolate MR11 infected in african green monkey Vero cells. Format: functional.
Assay [20] concerns Macacine alphaherpesvirus 1. Description: Ratio of acyclovir EC50 to compound EC50 for Macacine herpesvirus 1 isolate MR2 infected in african green monkey Vero cells. Type of assay: functional.
Assay [21] concerns Macacine alphaherpesvirus 1. Briefly: Ratio of acyclovir EC50 to compound EC50 for Macacine herpesvirus 1 isolate MR9 infected in african green monkey Vero cells. Format: functional.
For assay [22], the system named is Macacine alphaherpesvirus 1. Briefly: Ratio of acyclovir EC50 to compound EC50 for Macacine herpesvirus 1 isolate MC2 infected in african green monkey Vero cells. Format: functional.
Assay [23] concerns Macacine alphaherpesvirus 1. Briefly: Ratio of acyclovir EC50 to compound EC50 for Macacine herpesvirus 1 isolate A4 infected in african green monkey Vero cells. Type of assay: functional.
Assay [24] has as its system Macacine alphaherpesvirus 1. Description: Ratio of acyclovir EC50 to compound EC50 for Macacine herpesvirus 1 isolate A2 infected in african green monkey Vero cells. Format: functional.
Assay [25] relates to Macacine alphaherpesvirus 1. Description: Ratio of acyclovir EC50 to compound EC50 for Macacine herpesvirus 1 isolate MJ2 infected in african green monkey Vero cells. Type of assay: functional.
For assay [26], the system named is Macacine alphaherpesvirus 1. Description: Ratio of acyclovir EC50 to compound EC50 for Macacine herpesvirus 1 isolate MJ3 infected in african green monkey Vero cells. Format: functional.
In assay [27] the test system is Human alphaherpesvirus 2. Briefly: Antiviral activity against HSV2 infected in african green monkey Vero cells by plaque reduction assay. Type of assay: functional, organism-based. The conditions noted are these: Human alphaherpesvirus 2, Vero.
Assay [28] deals with Macacine alphaherpesvirus 1. Description: Antiviral activity against Macacine herpesvirus 1 infected in rabbits assessed as survival after 5 months. Type of assay: functional.
Assay [29] deals with Human alphaherpesvirus 1. Briefly: Antiviral activity against HSV1 infected in african green monkey Vero cells by plaque reduction assay. Format: functional, organism-based. The following applies: Human alphaherpesvirus 1, Vero.
For assay [30], the system named is Macacine alphaherpesvirus 1. Briefly: Antiviral activity against Macacine herpesvirus 1 isolate MC1 infected in african green monkey Vero cells by plaque reduction assay. Format: functional, organism-based. The conditions noted are these: Macacine alphaherpesvirus 1, isolate MC1, Vero.

pEC50: −log10 of the molar value.

Take `Nc1nc(=O)n([C@@H]2O[C@H](CO)[C@@H](O)[C@@H]2F)cc1Br`: the “Ratio EC50” value in assay [1], in assay [2], in assay [3], in [4], in assay [5] and in [6] was 10 in each case. The “Ratio EC50” value (in assay [7]; in [8]; in assay [9]; in assay [10]; in the assay with Human alphaherpesvirus 2 [11]; in assay [12]) was 10 throughout. The “Ratio EC50” value (with Human alphaherpesvirus 1 [13]; in [14]; in assay [15]; in assay [16]; in assay [17]; in [18]) was 10 each time. Besides, the “Ratio EC50” value in assay [19], in assay [20], in [21], in assay [22], in assay [23] and in [24] was 10 throughout. Also, the “Ratio EC50” value in assay [25] and in assay [26] was 10 in each case.
For the compound `Cc1cn([C@@H]2O[C@H](CO)[C@@H](O)[C@@H]2F)c(=O)nc1N`, the “Ratio EC50” value in assay [1], in assay [2], in assay [3], in assay [4], in assay [5] and in assay [6] was 10 in each case. For the same compound, the “Ratio EC50” value (in assay [7]; in assay [8]; in assay [9]; in assay [10]; in the assay on Human alphaherpesvirus 2 [11]; in assay [12]) was 10 in each case. In addition, the “Ratio EC50” value (in the assay on Human alphaherpesvirus 1 [13]; in assay [14]; in assay [15]; in assay [16]; in [17]; in assay [18]) was 10 in each case. In addition, the “Ratio EC50” value in assay [19], in [20], in assay [21], in assay [22], in [23] and in assay [24] was 10 throughout. Moreover, the “Ratio EC50” value in [25] and in [26] was 10 throughout.
Consider `CCc1cn([C@H]2O[C@@H](CO)[C@H](O)[C@H]2F)c(=O)[nH]c1=O` (single isomer, unassigned), for which the “Ratio EC50” value in assay [1], in assay [2], in assay [3], in assay [4], in assay [5] and in [6] was 100 each time. Moreover, the “Ratio EC50” value (in [7]; in assay [8]; in assay [9]; in assay [10]; in the assay on Human alphaherpesvirus 2 [11]; in assay [12]) was 100 throughout. For the same compound, the “Ratio EC50” value (with Human alphaherpesvirus 1 [13]; in assay [14]; in assay [15]; in assay [16]; in assay [17]; in assay [18]) was 100 each time. For the same compound, the “Ratio EC50” value in assay [19], in [20], in assay [21], in [22], in assay [23] and in assay [24] was 100 throughout. The “Ratio EC50” value in assay [25] and in assay [26] was 100 throughout.
For `Cc1cn([C@H]2O[C@@H](CO)[C@H](O)[C@H]2F)c(=O)[nH]c1=O` [CLEVUDINE], the “Ratio EC50” value in [1], in assay [2], in assay [3], in [4], in [5] and in assay [6] was 100 in each case. In addition, the “Ratio EC50” value (in assay [7]; in assay [8]; in assay [9]; in assay [10]; in the assay with Human alphaherpesvirus 2 [11]; in assay [12]) was 100 throughout. The “Ratio EC50” value (in the assay with Human alphaherpesvirus 1 [13]; in [14]; in assay [15]; in assay [16]; in assay [17]; in [18]) was 100 in each case. In addition, the “Ratio EC50” value in assay [19], in assay [20], in assay [21], in assay [22], in [23] and in assay [24] was 100 throughout. In addition, the “Ratio EC50” value in assay [25] and in [26] was 100 in each case.
On to `Nc1nc2c(ncn2COC(CO)CO)c(=O)[nH]1` [GANCICLOVIR], for which the pEC50 (in the assay with Human alphaherpesvirus 2 [27]; in the assay on Human alphaherpesvirus 1 [29]; in assay [30]) was 4.71 each time. For the same compound, in assay [28], the Activity amounted to 100%.

The record behind these values is ChEMBL document CHEMBL1212758 (Antimicrob Agents Chemother, 2010).
